In patent US20070270429A1, “Function Inhibitor of Effector Cell” (priority 2003, published 2007):
Like-named read-outs stand apart in the source and are kept apart here.

Tests used:
human CCR5 = molecular target: T1, human CCR5 (Homo sapiens, UniProt P51681); experiment: Migration test of human CCR5 expression cell (hCCR5-Ba/F3 cell); type: cell-based; details: hCCR5-Ba/F3 cells, 3 hours
T1 construct: expressed in transfected cells
Procedure: The Ba/F3 cell was statically cultured in a CO2 incubator (temperature: 37° C., CO2 concentration: 5%, humidity: 100%) using RPMI-1640 medium (Gibco BRL) containing an antibiotic preparation (Antibiotic-Antimycotic) (final concentration: penicillin G sodium (100 U/ml), streptomycin sulfate (100 μg/ml), amphotericin B (0.25 μg/ml)) (Gibco BRL), fetal bovine serum (FBS) (10%) and interleukin 3 (IL-3) (5 ng/ml) (Pepro Tech, Inc). For the culturing of an external gene stably over-expressing cell, blasticidin (Kaken Pharmaceutical) was added to the above-described medium to a final concentration of 10 μg/ml.
The plasmid for human CCR5 expression (pEF-BOS-bsr′/hCCR5) was made into linear chain by digesting with AatII. The linear-chained plasmid was purified using QIA Quick PCR Purification Kit (QIAGEN) and then transferred into Ba/F3 cell by electroporation (Gene Pulser (BIO RAD) 960 μF/250 V). The cells were inoculated into a 96 well culture plate at a cell density of 1000, 100 or 10 cells/100 μl/well, and 48 hours thereafter, blasticidin was added thereto to a final concentration of 10 μg/ml to carry out cloning of blasticidin resistant strains, thereby establishing a stable over-expression clone capable of expressing the transferred external gene (hCCR5-Ba/F3 cell).
The test was started by superposing the upper chamber on the lower chamber, and the cells were cultured for 3 hours in a CO2 incubator (5% CO2, humidity 95%) kept at 37° C. Outside bottom moiety of the upper chamber was washed out into the lower chamber using 0.5 ml of a washing buffer (phosphate buffered saline (PBS) containing sodium ethylenediaminetetraacetate (EDTA) (2 mM (and FBS (0.1%)), and the number of cells in the lower chamber was counted using a flow cytometer (Becton Dickinson).
(§1) The migration inhibition activity by the compounds of the present invention was calculated as the inhibition ratio (%) in accordance with the following formula, in which the value of well to which the medium containing DMSO but not containing the drug to be tested was added was used as the control value (A), and the value of well to which the DMSO-containing medium containing the drug to be tested was added as the value (B). Inhibition ratio (%)=[(A−B)/A]×100

[1] = tested on: human CD4-positive Th1 differentiation cell; experiment: Cell growth inhibition test of human CD4-positive Th1 differentiation cell (anti-CD3 antibody stimulation, BrdU uptake); type: cell-based
Procedure: After treating the cells with BrdU for a predetermined period of time, the plate was centrifuged (300×g, 10 minutes), and then turned upside down and lightly shaken to remove the labeled medium. The plate was dried (for about 15 minutes) using a hair dryer. A cell fixing and DNA denaturing solution (200 μl, attached to the kit) was added to each well and left alone for 30 minutes. After removing the cell fixing and DNA denaturing solution and further removing water, a peroxidase-labeled anti-BrdU antibody (anti-BrdU-POD reaction solution) (100 μl) (attached to the kit) was added thereto and left alone at room temperature for 90 minutes. The antibody solution was discarded, each well was washed three times with PBS (200 μl), water was discarded, and then the substrate solution (100 μl) (attached to the kit) was added thereto. After carrying out the enzyme reaction for a period of 5 to 30 minutes, 1 N sulfuric acid solution (25 μl) was added thereto and stirred on a shaker. The absorbance of samples was measured by a microplate reader (SPECTRAMAX-PRO) at 450 nm (control wavelength: 690 nm).
The cells fractionated by the method described in the above-described (2-1) were inoculated into a 96 well plate coated with the anti-human CD3 antibody, at a cell density of 2×10^5 cells/100 μl/well, a medium (100 μl) containing 2 times concentration solution of each drug to be tested (contains 0.2% DMSO) was added thereto, and the cells were cultured for 48 hours in a CO2 incubator (5% CO2, humidity 95%) kept at 37° C. The BrdU uptake activity was measured by the method described in the above-described (2-4).
as §1, with “cell growth” for “migration”, “activity of human CD8-positive memory T cell” for “activity”, “[…]” for “present invention”, “(%)=[(A−B)/A]×100 Results:” for “(%)=[(A−B)/A]×100”
A heparinized blood sample was collected from a human, healthy volunteer, and peripheral blood mononuclear cell (PBMC) was isolated by the density gradient centrifugation described in the above-described (2-1). CD4-positive T cell was isolated from PBMC by a negative selection method using Human T Cell CD4 Subset Column Kit (R & D Systems, Inc). Specifically, the cells to be removed such as B cell, CD8-positive T cell, monocyte and the like were labeled with antibodies by adding an antibody cocktail (1 ml) (attached to the kit) to PBMC (up to 2×10^8 cells) and incubating at room temperature for 15 minutes. […]

[2] = MIP-1α 3 nM in lower chamber, read-out: IC50 (nM), migration inhibition, chemokine MIP-1α
[3] = MIP-1β 3 nM in lower chamber, read-out: IC50 (nM), migration inhibition, chemokine MIP-1β
[4] = RANTES 3 nM in lower chamber, read-out: IC50 (nM), migration inhibition, chemokine RANTES

T1 sequence (P51681 whole entry): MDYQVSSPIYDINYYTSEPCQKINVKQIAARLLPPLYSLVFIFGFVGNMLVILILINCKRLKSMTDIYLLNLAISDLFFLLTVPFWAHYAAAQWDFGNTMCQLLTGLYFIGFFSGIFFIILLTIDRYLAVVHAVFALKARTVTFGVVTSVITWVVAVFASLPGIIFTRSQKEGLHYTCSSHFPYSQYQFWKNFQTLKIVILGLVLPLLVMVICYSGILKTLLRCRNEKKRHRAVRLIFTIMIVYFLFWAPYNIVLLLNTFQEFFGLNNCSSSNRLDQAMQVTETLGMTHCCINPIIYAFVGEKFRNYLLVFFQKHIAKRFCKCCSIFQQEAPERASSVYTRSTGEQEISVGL

Structure (SMILES) | IC50 (human CCR5; [2]) [nM] | IC50 (human CCR5; [3]) [nM] | IC50 (human CCR5; [4]) [nM] | inhibition ratio of cell growth ([1]; 0.1 μM) [%] | inhibition ratio of cell growth ([1]; 10 μM) [%]
CCCCN1C(=O)[C@@H]([C@H](O)C2CCCCC2)NC(=O)C12CCN(Cc1ccc(Oc3ccc(C(=O)O)cc3OCC)cc1)CC2.Cl [Compound (c), 4-[4-({(3R)-1-butyl-3-[(R)-cyclohexyl(hydroxy)methyl]-2,5-dioxo-1,4,9-triazaspiro[5.5]undec-9-yl}methyl)phenoxy]-3-ethoxybenzoic acid hydrochloride] | 17.3 | 18.4 | 22.5 | 48.3 | 47.7
CCCCN1C(=O)[C@@H]([C@H](O)C2CCCCC2)NC(=O)C12CCN(Cc1ccc(Cc3ccc(C(=O)O)cc3OC)cc1)CC2 [Compound (b), 4-[4-({(3R)-1-butyl-3-[(R)-cyclohexyl(hydroxy)methyl]-2,5-dioxo-1,4,9-triazaspiro[5.5]undec-9-yl}methyl)benzyl]-3-methoxybenzoic acid] | 9.8 | 11.1 | 12.4 | −2.3 | 21.8
